Structures are written as SMILES.

For the first test, the system named is Escherichia coli (ATCC25922) or Staphylococcus aureus (ATCC25923). Nature of the test: Antibacterial MIC, microdilution method in Mueller-Hinton medium. In kind it is cell-based. The conditions noted are these: Escherichia coli, 18 h, MIC in E. coli or S. aureus; two-fold serial dilutions 64 to 0.5 μg/ml in duplicate; 18 hours of incubation at 35° C.; read-out: Potency (MIC). The method, boiled down:
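Read after 18 h incubation at 35° C, MIC is the lowest compound level that blocked growth. Compounds were tested in duplicate over 64–0.5 μg/ml two-fold dilutions using Mueller-Hinton microdilution per NCCLS standard.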
Broadly, the MIC is the lowest concentration found to suppress growth. On to `Cc1ccc(S(=O)(=O)N(Cc2ccccc2)c2ccc(Nc3nc(NCCCn4ccnc4)nc(N4C[C@H](N)C[C@H](N)C4)n3)cc2O)cc1` [N-Benzyl-N-{4-[4-((3R,5S)-3,5-diamino-piperidin-1-yl)-6-(3-imidazol-1-yl-propylamino)-[1,3,5]triazin-2-ylamino]-2-hydroxy-phenyl}-4-methyl-benzenesulfonamide], for which the MIC was less than 64 µg/mL.
With `Cc1ccc(S(=O)(=O)N(Cc2ccccc2)c2ccc(Nc3nc(NC4CCNCC4)nc(N4C[C@H](N)C[C@H](N)C4)n3)cc2O)cc1` [N-Benzyl-N-{4-[4-((3R,5S)-3,5-diamino-piperidin-1-yl)-6-(piperidin-4-ylamino)-[1,3,5]triazin-2-ylamino]-2-hydroxy-phenyl}-4-methyl-benzenesulfonamide], the MIC is less than 64 µg/mL.
As to `COc1nc(Nc2ccc(N(Cc3ccccc3)S(=O)(=O)c3ccc(C)cc3)c(O)c2)nc(N2CCCCC2)n1.Cl` [N-Benzyl-N-{4-[4-((3R,5S)-3,5-diamino-piperidin-1-yl)-6-methoxy-[1,3,5]triazin-2-ylammino]-2-hydroxy-phenyl}-4-methyl-benzenesulfonamide], the MIC is less than 16 µg/mL.
Take `Cc1ccc(S(=O)(=O)N(Cc2ccccc2)c2ccc(Nc3nc(N4CCNCC4)nc(N4C[C@H](N)C[C@H](N)C4)n3)cc2O)cc1` [N-Benzyl-N-{4-[4-((3R,5S)-3,5-diamino-piperidin-1-yl)-6-piperazin-1-yl-[1,3,5]triazin-2-ylamino]-2-hydroxy-phenyl}-4-methyl-benzenesulfonamide]: the MIC is less than 64 µg/mL.
Consider `Cc1ccc(S(=O)(=O)N(Cc2ccccc2)c2ccc(Nc3nc(N4CCCCC4)nc(N4CCN(c5ccncc5)CC4)n3)cc2O)cc1.Cl` [N-Benzyl-N-{4-[4-((3R,5SD)-3,5-diamino-piperidin-1-yl)-6-(4-pyridin-4-yl-piperazin-1-yl)-[1,3,5]triazin-2-ylamino]-2-hydroxy-phenyl}-4-methyl-benzenesulfonamide], for which the minimum inhibitory concentration (MIC) was less than 16 µg/mL.
As to `CN1CCCC1CCNc1nc(N2C[C@H](N)C[C@H](N)C2)nc(N2C[C@H](N)C[C@H](N)C2)n1.Cl` (stereo partly drawn) [N-[2-(1-medthyl-pyrrolidin-2-yl)-ethyl]-4,6-Bis-((3R,5S)-3,5-diamino-piperidin-1-yl)-[1,3,5]triazine-2-amine], the MIC is more than 64 µg/mL.

Staying with this test, now noted: Escherichia coli, 18 h, read-out: Potency (MIC).
`C[C@H](Nc1nc(N2C[C@H](N)C[C@H](N)C2)nc(N2C[C@H](N)C[C@H](N)C2)n1)c1cccc2ccccc12` [N-((S)-1-naphthalen-1-yl-ethyl)-4,6-Bis-((3R,5S)-3,5-diamino-piperidin-1-yl)-[1,3,5]triazine-2-amine]: the MIC was more than 64 µg/mL.
Take `Cc1ccc(S(=O)(=O)N(Cc2ccccc2)c2ccc(Nc3nc(N4C[C@H](N)C[C@H](N)C4)nc(N4C[C@@H](N)[C@@H](N)C4)n3)cc2O)cc1` [N-Benzyl-N-{4-[4-((3R,5S)-3,5-diamino-piperidin-1-yl)-6-((3R,4S)-3,4-diamino-pyrrolidin-1-yl)-[1,3,5]triazin-2-ylamino]-2-hydroxy-phenyl}-4-methyl-benzenesulfonamide]: the minimal inhibitory concentration (MIC) was less than 16 µg/mL.
On the same count and under the same terms, the value for `Cc1ccc(S(=O)(=O)N(Cc2ccccc2)c2ccc(Nc3nc(N4C[C@H](N)C[C@H](N)C4)nc(N4C[C@@H](O)[C@@H](O)C4)n3)cc2O)cc1` [N-Benzyl-N-{4-[4-((3R,5S)-3,5-diamino-piperidin-1-yl)-6-((3R,4S)-3,4-dihydroxy-pyrrolidin-1-yl)-[1,3,5]triazin-2-ylamino]-2-hydroxy-phenyl}-4-methyl-benzenesulfonamide] was less than 64 µg/mL; that for `Cc1ccc(S(=O)(=O)N(Cc2ccccc2)c2ccc(Nc3nc(N4C[C@H](N)C[C@H](N)C4)nc(N4C[C@H](O)C[C@@H](O)C4)n3)cc2O)cc1` [N-Benzyl-N-{4-[4-((3R,5S)-3,5-diamino-piperidin-1-yl)-6-((3R,5R)-3,5-dihydroxy-piperidin-1-yl)-[1,3,5]triazin-2-ylamino]-2-hydroxy-phenyl}-4-methyl-benzenesulfonamide] was less than 64 µg/mL.
As to `Cc1ccc(S(=O)(=O)N(Cc2ccccc2)c2ccc(Nc3nc(N4C[C@H](N)C[C@H](N)C4)nc(N4CCC[C@@H](O)C4)n3)c(O)c2)cc1` [N-Benzyl-N-{4-[4-((3R,5S)-3,5-diamino-piperidin-1-yl)-6-((R)-3-hydroxy-piperidin-1-yl)-[1,3,5]triazin-2-ylamino]-3-hydroxy-phenyl}-4-methyl-benzenesulfonamide], the minimum inhibitory concentration (MIC) was less than 64 µg/mL.
On to `Cc1ccc(S(=O)(=O)N(Cc2ccccc2)c2ccc(Nc3nc(NC4CCCNC4)nc(N4C[C@H](N)C[C@H](N)C4)n3)cc2O)cc1` (stereo partly drawn) [N-Benzyl-N-{4-[4-((3R,5S)-3,5-diamino-piperidin-1-yl)-6-(piperidin-3-ylamino)-[1,3,5]triazin-2-ylamino]-2-hydroxy-phenyl}-4-methyl-benzenesulfonamide], for which the MIC is less than 64 µg/mL.
Same read-out and setting: to `Cc1ccc(S(=O)(=O)N(Cc2ccccc2)c2ccc(Nc3nc(N4C[C@H](N)C[C@H](N)C4)nc(N4C[C@H](CN)C[C@H](CN)C4)n3)c(O)c2)cc1` [N-Benzyl-N-{4-[4-((3S,5R)-3,5-bis-(aminomethyl)-piperidin-1-yl)-6-((3R,5S)-3,5-diamino-piperidin-1-yl)-[1,3,5]triazin-2-ylamino]-3-hydroxy-phenyl}-4-methyl-benzenesulfonamide] belongs less than 64 µg/mL.
Still for that read-out and setting: to `Cc1ccc(S(=O)(=O)N(Cc2ccccc2)c2ccc(Nc3nc(N(CCN)CCN)nc(N4C[C@H](N)C[C@H](N)C4)n3)c(O)c2)cc1` [N-Benzyl-N-{4-[4-[bis-(2-amino-ethyl)-amino]-6-((3R,5S)-3,5-diamino-piperidin-1-yl)-[1,3,5]triazin-2-ylamino]-3-hydroxy-phenyl}-4-methyl-benzenesulfonamide] belongs less than 64 µg/mL.
Regarding `COc1ccc(NC(=O)c2cccc(O)c2O)c(Nc2nc(N3C[C@H](N)C[C@H](N)C3)nc(N3C[C@H](N)C[C@H](N)C3)n2)c1` [N-[2-(2,3-dihydroxy-benzoylamino)-5-methoxy-phenyl]-4,6-Bis-((3R,5S)-3,5-diamino-piperidin-1-yl)-[1,3,5]triazine-2-amine], the MIC was more than 64 µg/mL.
Consider `N[C@@H]1C[C@H](N)CN(c2nc(NCCc3ccc(Cl)cc3Cl)nc(N3C[C@H](N)C[C@H](N)C3)n2)C1` [N-[2-(2,4-dichloro-phenyl)-ethyl]-4,6-Bis-((3R,5S)-3,5-diamino-piperidin-1-yl)-[1,3,5]triazine-2-amine], for which the MIC is more than 64 µg/mL.
On to `COc1ccc(NC(=O)c2ccc(O)cc2O)c(Nc2nc(N3C[C@H](N)C[C@H](N)C3)nc(N3C[C@H](N)C[C@H](N)C3)n2)c1` [N-[2-(2,4-dihydroxy-benzoylamino)-5-methoxy-phenyl]-4,6-Bis-((3R,5S)-3,5-diamino-piperidin-1-yl)-[1,3,5]triazine-2-amine], for which the MIC is more than 64 µg/mL.
Regarding `COc1ccc(NC(=O)c2cccc(C)c2O)c(Nc2nc(N3C[C@H](N)C[C@H](N)C3)nc(N3C[C@H](N)C[C@H](N)C3)n2)c1` [N-[2-(2-hydroxy-3-methyl-benzoylamino)-5-methoxy-phenyl]-4,6-Bis-((3R,5S)-3,5-diamino-piperidin-1-yl)-[1,3,5]triazine-2-amine], the MIC was more than 64 µg/mL.
Still for that read-out and setting: the value for `COc1ccc(Nc2nc(N3C[C@H](N)C[C@H](N)C3)nc(N3C[C@H](N)C[C@H](N)C3)n2)c(NC(=O)c2cccc([N+](=O)[O-])c2O)c1` [N-[2-(2-hydroxy-3-nitro-benzoylamino)-4-methoxy-phenyl]-4,6-Bis-((3R,5S)-3,5-diamino-piperidin-1-yl)-[1,3,5]triazine-2-amine] was more than 64 µg/mL; that for `COc1ccc(NC(=O)c2ccc(C)cc2O)c(Nc2nc(N3C[C@H](N)C[C@H](N)C3)nc(N3C[C@H](N)C[C@H](N)C3)n2)c1` [N-[2-(2-hydroxy-4-methyl-benzoylamino)-5-methoxy-phenyl]-4,6-Bis-((3R,5S)-3,5-diamino-piperidin-1-yl)-[1,3,5]triazine-2-amine] was more than 64 µg/mL.
The same measure, in the same setting: to `N[C@@H]1C[C@H](N)CN(c2nc(NCCNc3ccc([N+](=O)[O-])cn3)nc(N3C[C@H](N)C[C@H](N)C3)n2)C1` [N-[2-(5-nitro-pyridin-2-ylamino)-ethyl]-4,6-Bis-((3R,5S)-3,5-diamino-piperidin-1-yl)-[1,3,5]triazine-2-amine] belongs more than 64 µg/mL; to `Cc1ccc(S(=O)(=O)Nc2ccccc2Nc2nc(N3C[C@H](N)C[C@H](N)C3)nc(N3C[C@H](N)C[C@H](N)C3)n2)cc1` [N-[2-(toluene-4-sulfonylamino)-phenyl]-4,6-Bis-((3R,5S)-3,5-diamino-piperidin-1-yl)-[1,3,5]triazine-2-amine], more than 64 µg/mL; to `N#CCCNS(=O)(=O)c1ccc(Cl)c(Nc2nc(N3C[C@H](N)C[C@H](N)C3)nc(N3C[C@H](N)C[C@H](N)C3)n2)c1` [N-[2-chloro-5-(2-cyano-ethylsulfamoyl)-phenyl]-4,6-Bis-((3R,5S)-3,5-diamino-piperidin-1-yl)-[1,3,5]triazine-2-amine], more than 64 µg/mL.
For the compound `N[C@@H]1C[C@H](N)CN(c2nc(Nc3ccc(NC(=O)c4cccc([N+](=O)[O-])c4O)cc3O)nc(N3C[C@H](N)C[C@H](N)C3)n2)C1` [N-[2-hydroxy-4-(2-hydroxy-3-nitro-benzoylamino)-phenyl]-4,6-Bis-((3R,5S)-3,5-diamino-piperidin-1-yl)-[1,3,5]triazine-2-amine], the minimum inhibitory concentration (MIC) is less than 64 µg/mL.
Consider `N[C@@H]1C[C@H](N)CN(c2nc(Nc3cc(Cl)c(NC(=O)c4ccc(Cl)cc4O)c(Cl)c3)nc(N3C[C@H](N)C[C@H](N)C3)n2)C1` [N-[3,5-dichloro-4-(4-chloro-2-hydroxy-benzoylamino)-phenyl]-4,6-Bis-((3R,5S)-3,5-diamino-piperidin-1-yl)-[1,3,5]triazine-2-amine], for which the MIC is less than 16 µg/mL.
On to `N[C@@H]1C[C@H](N)CN(c2nc(Nc3cccc(NC(=O)c4cccc(O)c4O)c3)nc(N3C[C@H](N)C[C@H](N)C3)n2)C1` [N-[3-(2,3-dihydroxy-benzoylamino)-phenyl]-4,6-Bis-((3R,5S)-3,5-diamino-piperidin-1-yl)-[1,3,5]triazine-2-amine], for which the minimum inhibitory concentration (MIC) is less than 16 µg/mL.
